Several values for one entry are separate records, joined by “and”; a condition that tells them apart may be missing. Equal entries are not always repeated. Entries after “also recorded” stand apart in the source; their conditions may differ.
How the values were obtained:
[1] = log D by shake flask method (n-octanol / PBS pH 7.4); assay type: physicochemical
Method: The log D values were determined by traditional shake flask method. Each measurement was performed in duplicate as follows. First, 20 μM probe solution in 1 mL PBS (pH 7.4) was prepared to which 1 mL of n-octanol was added and mixed thoroughly. The mixture was kept in dark for 3 days for complete equilibrium, and the concentrations of probe in each layer were determined based on the UV absorbance. Log D values were determined based on the equation; log D=log [probe]oct−log [probe]PBS, where [probe]oct and [probe]PBS are the concentrations of the probe in n-octanol and PBS, respectively.

[2] = pKa from absorption spectra in PBS at different pH; assay type: physicochemical; settings: from absorbance at λabs,max versus pH of PBS
Method: UV absorption spectra were taken by adding probe (2 μL of 10 mM stock solution in DMSO) to 998 μL of PBS buffer at different pH values (final probe conc.=20 μM) in quartz cuvette.
The pKa values of probes were determined from the absorption spectra.

VMAT2 = molecular target: T1, VMAT2 (Rattus norvegicus, UniProt Q01827); assay: Fluorescent microscopy probe uptake assay in VMAT2/HEK cells; assay type: cell-based; settings: 20 μM probe; for Uptake pattern in screening with VMAT2/HEK and HEK cells: 30 min, VMAT2/HEK vs HEK cells, with or without 1 μM TBZ or reserpine; for Probe uptake in VMAT2-HEK cells: 30 min incubation
T1 construct: host or cells: HEK GnTI- (nonglycosylating) cells stably expressing VMAT2
Method: HEK GNTI^− (nonglycosylating) cell line stably expressing VMAT2 (VMAT2-HEK) and HEK GNU^− cell line stably transected with TetR (HEK) to serve as a control were kindly provided by the laboratory of Robert Edwards at UCSF. Cells were grown in DMEM+Glutamax (Invitrogen #10569) with 10% fetal bovine serum (FBS) (Atlanta Biologicals), 100 U/ml penicillin (Nitrogen), and 100 μg/ml streptomycin (Invitrogen). […] The medium was removed by aspiration, and the cells were washed with PBS (2 mL per well). […] Then, the probe uptake was initiated by adding 0.1 mL of experimental media containing probe (220 μM, prepared from 10 mM stock solution in DMSO, final conc.=20 μM in the uptake assay). After incubating at 37° C. for 30 minutes, the media was removed by aspiration, and the cells were washed with PBS (2 mL per well) and treated with probe-free experimental media. Fluorescence images were taken by using Leica FW 4000 equipped with Chroma custom filter cube (ex=350/50 nm, em=460/50 nm) and Hamamatsu digital camera C4742-95. The fluorescent images and bright field images were acquired for 2000 ms and 37 ms, respectively. All images were adjusted using the same contrast and brightness level using Images J (National Institute of Health).

VMAT1 = molecular target: T2, VMAT1 (Rattus norvegicus, UniProt Q01818); assay: Fluorescent microscopy uptake of Mini202 in PC-12 cells; assay type: cell-based
T2 construct: PC-12 cells express mostly VMAT1 on their secretory large dense core vesicles (LDCVs); host or cells: PC-12 cells
T2 sequence (Q01818 1-521): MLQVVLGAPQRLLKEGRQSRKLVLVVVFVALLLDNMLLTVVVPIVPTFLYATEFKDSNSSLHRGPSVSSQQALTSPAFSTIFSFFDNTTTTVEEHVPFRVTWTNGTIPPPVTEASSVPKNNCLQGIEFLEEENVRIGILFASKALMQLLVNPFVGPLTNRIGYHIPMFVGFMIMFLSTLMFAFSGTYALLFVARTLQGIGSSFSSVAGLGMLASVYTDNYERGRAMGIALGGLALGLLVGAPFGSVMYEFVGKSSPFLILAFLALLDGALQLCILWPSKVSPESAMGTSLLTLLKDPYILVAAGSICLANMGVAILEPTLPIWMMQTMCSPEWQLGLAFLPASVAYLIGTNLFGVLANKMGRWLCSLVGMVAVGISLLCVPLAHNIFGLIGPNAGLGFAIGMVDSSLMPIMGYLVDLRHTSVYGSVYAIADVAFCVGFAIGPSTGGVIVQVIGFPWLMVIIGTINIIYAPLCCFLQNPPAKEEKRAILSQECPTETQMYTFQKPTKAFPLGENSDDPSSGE
Method: PC-12 cells were purchased and maintained according to the protocols provided by American Type Culture Collection (ATCC, CRL-1721). Among the two variations of PC-12 provided by ATCC, the one displaying loosely adherent (with no PDL coating) and multicell-aggregating phenotype was used. PC-12 cells were grown in RPMI-1640 (Invitrogen, #11875) with 10% horse serum (Invitrogen, #16050-114), 5% fetal bovine serum (FBS) (Atlanta Biologicals), 100 U/ml penicillin (Invitrogen), and 100 μg/ml streptomycin (Invitrogen). […] After 6 days when the cells get ˜70% confluent, the medium was removed by aspiration, and the cells were washed with PBS (2 mL per well). […] Then, the probe uptake was initiated by adding 0.1 mL of experimental media containing Mini202 (220 μM, prepared from 10 mM stock solution in DMSO, final conc.=20 μM in the uptake assay) to the cells. After incubating the cells at 37° C. for 1 hour, the medium was removed by aspiration, and cells were washed with PBS (2 mL per well) and treated with dye-free experimental media. Fluorescence images were taken by using Leica FW 4000 equipped with Chroma custom filter cube (ex=350/50 nm, em=460/50 nm) and Hamamatsu digital camera C4742-95. The fluorescent images and bright field images were acquired for 2000 ms and 37 ms, respectively. […]

HEK cells = assay: Fluorescent microscopy probe uptake in control (non-transfected) HEK cells; assay type: cell-based, human; settings: 20 μM probe, 30 min incubation
Method: HEK GNTI^− (nonglycosylating) cell line stably expressing VMAT2 (VMAT2-HEK) and HEK GNU^− cell line stably transected with TetR (HEK) to serve as a control were kindly provided by the laboratory of Robert Edwards at UCSF. Cells were grown in DMEM+Glutamax (Invitrogen #10569) with 10% fetal bovine serum (FBS) (Atlanta Biologicals), 100 U/ml penicillin (Nitrogen), and 100 μg/ml streptomycin (Invitrogen). […] After 5 days, the cells looked fibroblastic and had reached ˜70% confluence. The medium was removed by aspiration, and the cells were washed with PBS (2 mL per well). […] Then, the probe uptake was initiated by adding 0.1 mL of experimental media containing probe (220 μM, prepared from 10 mM stock solution in DMSO, final conc.=20 μM in the uptake assay). After incubating at 37° C. for 30 minutes, the media was removed by aspiration, and the cells were washed with PBS (2 mL per well) and treated with probe-free experimental media. Fluorescence images were taken by using Leica FW 4000 equipped with Chroma custom filter cube (ex=350/50 nm, em=460/50 nm) and Hamamatsu digital camera C4742-95. The fluorescent images and bright field images were acquired for 2000 ms and 37 ms, respectively. All images were adjusted using the same contrast and brightness level using Images J (National Institute of Health).

[3] = Photostability of probe in fluorescence microscopy
[4] = Two-photon ratiometric pH measurement of secretory vesicles (LDCVs) in PC-12 cells
VMAT2-HEK cells = assay: Chloroquine-induced Mini202 redistribution in VMAT2-HEK cells; assay type: cell-based, human; settings: chloroquine 300 μM, 3 min, VMAT2-HEK cells labeled with Mini202
Method: For the chloroquine-induced Mini202 redistribution experiment, after probe loading and cell washing with PBS, 1 mL of experimental media containing 300 μM chloroquine was added to the cells at RT for 3 minutes, after which time fluorescent images were taken by the same procedure described above.

LDCVs in PC-12 cells = assay: Two-photon ratiometric pH measurement of secretory vesicles (LDCVs) in PC-12 cells; settings: PC-12 cells loaded with Mini202, 100 μM methamphetamine, 5 minutes, RT
[5] = n-octanol / PBS pH 7.4, 20 μM probe
[6] = PBS buffer at different pH values, read-out: pKa
[7] = n-octanol/PBS, pH 7.4, n-octanol / PBS pH 7.4, 20 μM probe

T1 sequence (Q01827 whole entry): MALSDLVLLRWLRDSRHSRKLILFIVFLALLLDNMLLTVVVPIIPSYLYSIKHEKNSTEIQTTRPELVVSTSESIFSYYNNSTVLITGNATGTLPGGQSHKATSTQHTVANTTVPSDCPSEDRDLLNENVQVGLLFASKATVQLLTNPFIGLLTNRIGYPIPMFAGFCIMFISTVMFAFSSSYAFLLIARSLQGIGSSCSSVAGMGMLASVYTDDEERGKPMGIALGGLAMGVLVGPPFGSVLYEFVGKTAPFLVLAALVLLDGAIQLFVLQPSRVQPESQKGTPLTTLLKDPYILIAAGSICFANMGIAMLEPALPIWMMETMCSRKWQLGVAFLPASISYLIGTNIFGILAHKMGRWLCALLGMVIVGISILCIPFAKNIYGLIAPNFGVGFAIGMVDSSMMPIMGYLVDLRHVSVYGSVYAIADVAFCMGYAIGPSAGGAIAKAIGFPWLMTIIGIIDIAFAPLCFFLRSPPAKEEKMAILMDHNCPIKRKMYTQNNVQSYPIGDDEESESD

Row | SMILES | logD at 3 days [1, 5] | pKa [2, 6] | Uptake pattern in screening with VMAT2/HEK and HEK cells (VMAT2) | logD at 3 days [1, 7] | further results
1 | CC(C)(C)CC(C)(C)c1cc2c(CCN)cc(=O)oc2cc1O [Mini105] | 1.3 | 8.49 | non-selective uptake |  | 
2 | NCCc1cc(=O)oc2cc(O)ccc12 [Mini101] |  | 7.2 |  | -0.94 | pKa [2]: 7.24
3 | COC(=O)[C@H]1[C@H]2C[C@@H]3c4[nH]c5cc(OC)ccc5c4CCN3C[C@H]2C[C@@H](OC(=O)c2cc(OC)c(OC)c(OC)c2)[C@@H]1OC [reserpine, reference compound] |  |  |  |  | Effect of VMAT1 inhibitor on Mini202 uptake in PC-12 cells (VMAT1; reserpine 1 μM, 1 h pre-incubation, then 20 μM Mini202 1 h): no detectable labeling; also recorded: completely inhibited
4 | CC(C)(C)c1cc2c(CCN)cc(=O)oc2cc1O [Mini104] |  | 7.94 | non-selective uptake | 0.89 | 
5 | NCCc1cc(=O)oc2c(Cc3ccccc3)c(O)c(F)cc12 [Mini106] | 0.18 | 6.09 | VMAT2 substrates |  | 
6 | NCCc1cc2c(ccc3ccc(O)cc32)oc1=O [Mini401] | 0.86 | 9.36 | non-selective uptake |  | 
7 | NCCC(=O)c1cc2ccc(O)cc2oc1=O [Mini301] | 0.14 | 7 | no uptake in either cell lines |  | 
8 | NCCc1cc(=O)oc2cc(O)c(F)cc12 [Mini103] |  | 5.95 |  | -1.98 | 
9 | NCCc1cc2cc(Cl)c(O)cc2oc1=O [Mini202] |  | 6.1 | VMAT2 substrates |  | LogD (at pH 7.4) [1, 5]: −1.5 and −1.42; pKa [2]: 6.06; Probe uptake in VMAT2-HEK cells (VMAT2): highest uptake; also recorded: punctuate fluorescence patterns; Probe uptake in VMAT2-HEK cells (VMAT2; listed as Mini202.TFA): punctuate uptake in a VMAT2-dependent manner; also recorded: fluorescent puncta; Probe uptake in non-transfected HEK cells (HEK cells): No uptake; Probe uptake in non-transfected HEK cells (HEK cells; listed as Mini202.TFA): no uptake; Mini202 uptake / labeling in PC-12 cells (VMAT1; 20 μM, 1 h): fluorescent puncta; also recorded: VMAT1 substrate; Photostability [3]: photostable; pKa [4]: 5.93 ± 0.04
10 | CCN(CC)CCCC(C)Nc1ccnc2cc(Cl)ccc12 (centres unmarked) [chloroquine] |  |  |  |  | Redistribution of Mini202 from acidic vesicles (VMAT2-HEK cells): diffusion of the punctuate fluorescent pattern; also recorded: redistribution of Mini202 from the acidic vesicles to cytosol
11 | NCCc1cc2ccc(O)cc2oc1=O [Mini201] |  | 7.6 | VMAT2 substrates | -1.01 | 
12 | NCCC(=O)c1cc2cc(Cl)c(O)cc2oc1=O [Mini302] | 0.24 | 4.68 | no uptake in either cell lines |  | 
13 | CN[C@@H](C)Cc1ccccc1 [methamphetamine] |  |  |  |  | emission ratio (I760/I692) after drug exposure (LDCVs in PC-12 cells): 1.19; vesicular pH in PC-12 cells after drug exposure (LDCVs in PC-12 cells): 6.36 and 6.4
14 | NCCc1cc(=O)oc2cc(O)c(Cl)cc12 [Mini102] |  | 5.8 |  | -1.45 | pKa [2]: 5.77

Source: patent US9075014B2, “pH-responsive fluorescent false neurotransmitters and their use” (THE TRUSTEES OF COLUMBIA UNIVERSITY IN THE CITY OF NEW YORK, priority 2011, dated 2015)
